Test system: aP2 and PPAR GAMMA receptor mRNA in 3T3-L1 cells
Assay: Northern blot of adipocyte markers in 3T3-L1 cells infected with MFG-Neo or MFG-REV retrovirus
Type: cell-based
Conditions: control cells (MFG-Neo)
Procedure: 3T3-L1 cells were infected with either MFG-Neo or MFG-REV retrovirus and treated for 8 days with a mixture containing IBMX and insulin (“Mix”), with or without 1 μM rosiglitazone. mRNA was then extracted and analyzed by Northern blot using the indicated probes.
RNA extraction and Northern blot analyses were carried out according to the previously described method (Staels, B. et al., Arteriosclerosis and Thrombosis 1992, 12(3): 286-294) using rat Rev-erb alpha, murine PPAR gamma and murine aP2, chicken beta-actin and human 36B4 cDNA probes.
Cells post-confluent after two days of culture (designated day D0) were transferred to differentiation medium (DMEM, 10% FCS, 1 μM dexamethasone, 10 μg/ml insulin and 0.5 mM 3-methyl-1-isobutylxanthine (IBMX) (Sigma, St Louis, Mo., USA)) for two days. Cells were then grown in post-differentiation medium (DMEM, 10% FCS, insulin) with or without rosiglitazone. The medium was changed every day. Stable 3T3-L1 pre-adipocytes expressing the REV-ERB ALPHA receptor were grown in the same conditions but differentiated without dexamethasone. After the treatment, cells were fixed with 10% formaldehyde in PBS and stained with Oil Red O (Sigma, St Louis, Mo., USA). Alternatively, total RNA was extracted as described earlier.
3T3-L1 pre-adipocytes were then infected with the resulting virus. […]

CN(CCOc1ccc(CC2SC(=O)NC2=O)cc1)c1ccccn1 (stereo not shown) [rosiglitazone]
time until high aP2 and PPAR GAMMA receptor mRNA levels were observed: 8 to 12 days

Reference: patent US7368286B2, “Method and device for identifying substances capable of modulating adipocyte differentiation” (Genfit, priority 2002, dated 2008)
